Laboratory results published in PubChem BioAssay (NCI).
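Each compound was tested at five concentrations against cells in 96-well plates for 48 hours. GI50 = concentration required for 50% inhibition of growth. TGI: total growth inhibition.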

How the values were obtained:
Assay in all cases: inhibition of tumour cell growth, NCI panel, 48 h
[1] = system: EKVX NSCLC
[2] = system: UACC-257 melanoma
[3] = system: T-47D breast
[4] = system: DU-145 prostate
[5] = system: SN12C renal
[6] = system: SNB-75 CNS
[7] = system: 786-0 renal
[8] = system: TK-10 renal
[9] = system: LOX IMVI melanoma
[10] = system: HCT-15 colon
[11] = system: HOP-92 NSCLC
[12] = system: ACHN renal
[13] = system: SF-268 CNS
[14] = system: A549 NSCLC
[15] = system: UACC-62 melanoma
[16] = system: CAKI-1 renal
[17] = system: NCI-H460 lung
[18] = system: MOLT-4 leukemia
[19] = system: HCC-2998 colon
[20] = system: SW-620 colon
[21] = system: UO-31 renal
[22] = system: PC-3 prostate
[23] = system: SF-295 CNS
[24] = system: HOP-62 NSCLC
[25] = system: SK-MEL-2 melanoma
[26] = system: HT29 colon
[27] = system: OVCAR-5 ovarian
[28] = system: MALME-3M melanoma
[29] = system: SK-MEL-28 melanoma
[30] = system: A498 renal
[31] = system: MDA-MB-231 breast
[32] = system: BT-549 breast
[33] = system: NCI-H23 lung
[34] = system: KM12 colon
[35] = system: SF-539 CNS
[36] = system: U251 CNS
[37] = system: RPMI-8226 leukemia
[38] = system: NCI-H226 lung
[39] = system: NCI-H522 lung
[40] = system: SK-MEL-5 melanoma
[41] = system: SK-OV-3 ovarian
[42] = system: M14 melanoma
[43] = system: OVCAR-4 ovarian
[44] = system: SNB-19 CNS
[45] = system: MDA-MB-435
[46] = system: COLO 205 colon
[47] = system: OVCAR-3 ovarian
[48] = system: HCT-116 colon
[49] = system: MCF7 breast
[50] = system: NCI/ADR-RES ovarian
[51] = system: HL-60(TB) leukemia
[52] = system: HS 578T breast
[53] = system: K-562 leukemia
[54] = system: OVCAR-8 ovarian

COc1ccc(C(=O)/C=C/c2c(OC)cc(OC)cc2OC)c(OC)c1
GI50 [1]: 4.2 µM | TGI [1]: > 100 µM | GI50 [2]: 36.6 µM | TGI [2]: > 100 µM | GI50 [3]: 16.8 µM | TGI [3]: > 100 µM | GI50 [4]: 3.21 µM | TGI [4]: > 100 µM | GI50 [5]: 7.24 µM | TGI [5]: > 100 µM | GI50 [6]: 3.26 µM | TGI [6]: > 100 µM | GI50 [7]: 15.4 µM | TGI [7]: > 100 µM | GI50 [8]: 36.6 µM | TGI [8]: > 100 µM | GI50 [9]: 3.7 µM | TGI [9]: > 100 µM | GI50 [10]: 2.42 µM | TGI [10]: > 100 µM | GI50 [11]: 16.6 µM | TGI [11]: 95.2 µM | GI50 [12]: 21.5 µM | TGI [12]: > 100 µM | GI50 [13]: 7.33 µM | TGI [13]: > 100 µM | GI50 [14]: 5.36 µM | TGI [14]: > 100 µM | GI50 [15]: 1.32 µM | TGI [15]: > 100 µM | GI50 [16]: 1.44 µM | TGI [16]: > 100 µM | GI50 [17]: 2.77 µM | TGI [17]: > 100 µM | GI50 [18]: > 100 µM | TGI [18]: > 100 µM | GI50 [19]: 2.51 µM | TGI [19]: > 100 µM | GI50 [20]: 0.911 µM | TGI [20]: > 100 µM | GI50 [21]: > 100 µM | TGI [21]: > 100 µM | GI50 [22]: 4.6 µM | TGI [22]: > 100 µM | GI50 [23]: 0.987 µM | TGI [23]: 5.31 µM | GI50 [24]: 11.8 µM | TGI [24]: > 100 µM | GI50 [25]: 5.52 µM | TGI [25]: > 100 µM | GI50 [26]: 0.881 µM | TGI [26]: > 100 µM | GI50 [27]: > 100 µM | TGI [27]: > 100 µM | GI50 [28]: 7.44 µM | TGI [28]: > 100 µM | GI50 [29]: > 100 µM | TGI [29]: > 100 µM | GI50 [30]: 2.23 µM | TGI [30]: 8.87 µM | GI50 [31]: 5.76 µM | TGI [31]: > 100 µM | GI50 [32]: 83.8 µM | TGI [32]: > 100 µM | GI50 [33]: 3.09 µM | TGI [33]: > 100 µM | GI50 [34]: 1.21 µM | TGI [34]: > 100 µM | GI50 [35]: 2.7 µM | TGI [35]: > 100 µM | GI50 [36]: 3.95 µM | TGI [36]: > 100 µM | GI50 [37]: 5.8 µM | TGI [37]: > 100 µM | GI50 [38]: 21.3 µM | TGI [38]: > 100 µM | GI50 [39]: 2.47 µM | TGI [39]: > 100 µM | GI50 [40]: 1.51 µM | TGI [40]: > 100 µM | GI50 [41]: 27.9 µM | TGI [41]: > 100 µM | GI50 [42]: 2.59 µM | TGI [42]: > 100 µM | GI50 [43]: > 100 µM | TGI [43]: > 100 µM | GI50 [44]: 8.37 µM | TGI [44]: > 100 µM | GI50 [45]: 0.275 µM | TGI [45]: 0.947 µM | GI50 [46]: 3.38 µM | TGI [46]: > 100 µM | GI50 [47]: 1.46 µM | TGI [47]: 8.37 µM | GI50 [48]: 3.31 µM | TGI [48]: > 100 µM | GI50 [49]: 3.85 µM | TGI [49]: > 100 µM | GI50 [50]: 0.78 µM | TGI [50]: > 100 µM | GI50 [51]: 3.64 µM | TGI [51]: > 100 µM | GI50 [52]: 5.23 µM | TGI [52]: > 100 µM | GI50 [53]: 0.853 µM | TGI [53]: > 100 µM | GI50 [54]: 4.91 µM | TGI [54]: > 100 µM
